# Reference: publication PMC4864567, “Characterization of the ATP-Dependent Lon-Like Protease in Methanobrevibacter smithii” (Archaea, 2016)
# Experiments:
# [1] = target: T1, Lon-like-Ms (Methanobrevibacter smithii, UniProt A5UP31); experiment: fluorogenic peptide cleavage (MNA release); assay type: biochemical; settings: 0.3 mM Glt-AAF-MNA, 10 mM MgCl2, pH 8.0, 37 °C; nucleotide required for activity, inhibitory at rising concentration; not a fitted IC50
# T1 construct: gene Msm_1754
# T1 sequence (A5UP31 1-682): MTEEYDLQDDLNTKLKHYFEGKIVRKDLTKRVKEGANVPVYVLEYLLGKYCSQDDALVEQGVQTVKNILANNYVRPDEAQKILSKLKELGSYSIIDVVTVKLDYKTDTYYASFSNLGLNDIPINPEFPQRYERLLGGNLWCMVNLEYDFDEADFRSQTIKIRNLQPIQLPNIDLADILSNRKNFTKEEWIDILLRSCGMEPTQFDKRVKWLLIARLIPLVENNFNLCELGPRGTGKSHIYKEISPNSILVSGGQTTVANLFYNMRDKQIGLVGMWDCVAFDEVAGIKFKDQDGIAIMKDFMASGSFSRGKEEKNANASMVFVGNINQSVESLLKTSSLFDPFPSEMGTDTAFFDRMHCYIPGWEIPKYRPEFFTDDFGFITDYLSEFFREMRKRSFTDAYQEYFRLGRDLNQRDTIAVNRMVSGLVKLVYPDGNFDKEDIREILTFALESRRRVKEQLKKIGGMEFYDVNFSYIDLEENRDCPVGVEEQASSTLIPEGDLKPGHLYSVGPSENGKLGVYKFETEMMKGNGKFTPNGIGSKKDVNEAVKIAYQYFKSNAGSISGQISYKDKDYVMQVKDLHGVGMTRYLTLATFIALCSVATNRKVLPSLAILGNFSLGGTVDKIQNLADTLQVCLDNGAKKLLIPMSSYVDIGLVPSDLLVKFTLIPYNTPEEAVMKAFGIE
# Text: fluorogenic peptide cleavage (MNA release) on Lon-like-Ms | reaching a decrease by half at 1-mM ATP or AMP-PNP
# [2] = target: T1, Lon-like-Ms; experiment: fluorogenic peptide cleavage (MNA release); assay type: biochemical; settings: ADP in place of ATP, with Mg2+; Glt-AAF-MNA, pH 8.0, 37 °C; called inhibitory, partial activity retained
SMILES,concentration giving decrease by half [1],fluorogenic peptide cleavage (MNA release) [2]
Nc1ncnc2c1ncn2[C@@H]1O[C@H](COP(=O)(O)OP(=O)(O)NP(=O)(O)O)[C@@H](O)[C@H]1O [5′-adenylyl imidodiphosphate],~ 1 mM,–
Nc1ncnc2c1ncn2[C@@H]1O[C@H](COP(=O)(O)OP(=O)(O)O)[C@@H](O)[C@H]1O [ADP],–,"ADP, a potent inhibitor of Lon from E. coli, also inhibited the activity of Lon-like-Ms"
Nc1ncnc2c1ncn2[C@@H]1O[C@H](COP(=O)(O)OP(=O)(O)OP(=O)(O)O)[C@@H](O)[C@H]1O [ATP],~ 1 mM,–
